From US20070155764A1, “NOVEL SUBSTITUTED PYRIMIDINYLOXY UREAS USEFUL AS INHIBITORS OF PROTEIN KINASES” (KALYPSYS, INC., priority 2005, published 2007)

Key:
Format in all cases: biochemical
[1] = molecular target: T1, human B-Raf protein kinase (Homo sapiens, UniProt P15056); assay: In vitro B-Raf/Mek1 composite kinase assay; settings: recombinant GST-tagged human B-Raf (Δ1-415) with inactive Mek1, 2 μM ATP
T1 construct: GST (N); purchased Upstate Inc. 14-530 (B-Raf); 14-420 (Mek1)
Protocol: In Vitro B-Raf/Mek1 Composite Kinase Assay
2.5 μl of B-Raf kinase buffer (20 mM MOPS [pH 7.2], 25 mM sodium glycerophosphate, 2 mM EGTA [pH 8.0], 1 mM sodium orthovanadate, 1 mM dithiothreitol, 10 mM MgCl2, 0.03% Brij-35, 0.3 mg/ml bovine serum albumin) containing 1 ng of recombinant, N-terminal GST-tagged human B-Raf protein kinase (Δ1-415, Upstate Inc., cat. #14-530) is dispensed to wells of a 1536 multi-well white solid plate. 60 nl of 100× concentration of test compound in DMSO is dispensed to the well by passive pin transfer and incubated for 15 minutes at room temperature (approx. 22° C.). […] The assay plates are sealed and maintained in a humidified environment. After 2 hours, 2.5 μl of PKLight protein kinase assay reagent (Cambrex, cat. #LT07-501) is dispensed. After an additional 5 minute incubation at room temperature, luminescence activity is measured on a Molecular Devices Analyst multi-mode plate reader or other suitable plate reader. Kinase inhibition results in less ATP depletion, and therefore increased luminescence signal. Negative control activity is measured with DMSO lacking any test compound. The positive control is [N-(3-trifluoromethyl-4-chlorophenyl)-N′-(4-(2-methylcarbamoyl-pyridin-4-yl)oxyphenyl)urea], aka Bay 43-9006. Efficacy is measured as a percentage of positive control activity.

PDGFRβ kinase = molecular target: T2, PDGFRβ kinase (Homo sapiens, UniProt P09619); assay: In vitro PDGFRβ kinase assay; settings: ADP Quest assay, poly Glu:Tyr substrate, 60 μM ATP
T2 construct: purchased Invitrogen Inc. P3082
Protocol: (§1) In vitro vegfr2 and PDGFRβ Kinase Assays
(§2) 2.5 μl of ADP Quest assay buffer (DiscoverX Inc., cat. #90-0071) containing 20 ng VEGFR2 kinase (Invitrogen Inc, cat. #PV3660) or 25 ng PDGFRβ kinase (Invitrogen Inc., cat. #P3082) is dispensed to wells of a 1536 multi-well, black solid plate. 60 nl of 100× concentration of test compound in DMSO is dispensed to the well by passive pin transfer and incubated for 10 minutes at room temperature (approx. 22° C.). 2.5 μl of ADP Quest assay buffer containing 0.25 μg of poly Glu:Tyr (4:1) substrate peptide (Upstate Inc., cat. #12-440) and 60 μM ATP is then dispensed and the kinase reaction allowed to incubate at 30° C. for 2 hours. The assay plates are sealed and maintained in a humidified environment. After the 2 hour incubation, 2 μl of ADP Quest assay reagent A, followed by 2 μl of assay reagent B, is added. After an additional 30 minute incubation at room temperature, fluorescence intensity is measured on a Molecular Devices Aquest multi-mode plate reader or other suitable plate reader (fluorescence excitation filter: 530/25 [Peak (nm)/FWHM passband (nm)]; dichroic beamsplitter: 561 nm longpass; fluorescence emission filter: 580/10 [Peak (nm)/FWHM passband (nm)]. The assay measures the conversion of a non-fluoresecent molecule to fluorescent resorutin, which correlates with kinase activity. Negative control activity is measured with DMSO lacking any test compound. The positive control is [N-(3-trifluoromethyl-4-chlorophenyl)-N′-(4-(2-methylcarbamoyl-pyridin-4-yl)oxyphenyl)urea], aka Bay 43-9006. Efficacy is measured as a percentage of positive control activity.

VEGFR2 kinase = molecular target: T3, VEGFR2 kinase (Homo sapiens, UniProt P35968); assay: In vitro VEGFR2 kinase assay; settings: ADP Quest assay, poly Glu:Tyr substrate, 60 μM ATP
T3 construct: purchased Invitrogen Inc PV3660
Protocol: as §1, §2

T3 sequence (P35968 20-1356): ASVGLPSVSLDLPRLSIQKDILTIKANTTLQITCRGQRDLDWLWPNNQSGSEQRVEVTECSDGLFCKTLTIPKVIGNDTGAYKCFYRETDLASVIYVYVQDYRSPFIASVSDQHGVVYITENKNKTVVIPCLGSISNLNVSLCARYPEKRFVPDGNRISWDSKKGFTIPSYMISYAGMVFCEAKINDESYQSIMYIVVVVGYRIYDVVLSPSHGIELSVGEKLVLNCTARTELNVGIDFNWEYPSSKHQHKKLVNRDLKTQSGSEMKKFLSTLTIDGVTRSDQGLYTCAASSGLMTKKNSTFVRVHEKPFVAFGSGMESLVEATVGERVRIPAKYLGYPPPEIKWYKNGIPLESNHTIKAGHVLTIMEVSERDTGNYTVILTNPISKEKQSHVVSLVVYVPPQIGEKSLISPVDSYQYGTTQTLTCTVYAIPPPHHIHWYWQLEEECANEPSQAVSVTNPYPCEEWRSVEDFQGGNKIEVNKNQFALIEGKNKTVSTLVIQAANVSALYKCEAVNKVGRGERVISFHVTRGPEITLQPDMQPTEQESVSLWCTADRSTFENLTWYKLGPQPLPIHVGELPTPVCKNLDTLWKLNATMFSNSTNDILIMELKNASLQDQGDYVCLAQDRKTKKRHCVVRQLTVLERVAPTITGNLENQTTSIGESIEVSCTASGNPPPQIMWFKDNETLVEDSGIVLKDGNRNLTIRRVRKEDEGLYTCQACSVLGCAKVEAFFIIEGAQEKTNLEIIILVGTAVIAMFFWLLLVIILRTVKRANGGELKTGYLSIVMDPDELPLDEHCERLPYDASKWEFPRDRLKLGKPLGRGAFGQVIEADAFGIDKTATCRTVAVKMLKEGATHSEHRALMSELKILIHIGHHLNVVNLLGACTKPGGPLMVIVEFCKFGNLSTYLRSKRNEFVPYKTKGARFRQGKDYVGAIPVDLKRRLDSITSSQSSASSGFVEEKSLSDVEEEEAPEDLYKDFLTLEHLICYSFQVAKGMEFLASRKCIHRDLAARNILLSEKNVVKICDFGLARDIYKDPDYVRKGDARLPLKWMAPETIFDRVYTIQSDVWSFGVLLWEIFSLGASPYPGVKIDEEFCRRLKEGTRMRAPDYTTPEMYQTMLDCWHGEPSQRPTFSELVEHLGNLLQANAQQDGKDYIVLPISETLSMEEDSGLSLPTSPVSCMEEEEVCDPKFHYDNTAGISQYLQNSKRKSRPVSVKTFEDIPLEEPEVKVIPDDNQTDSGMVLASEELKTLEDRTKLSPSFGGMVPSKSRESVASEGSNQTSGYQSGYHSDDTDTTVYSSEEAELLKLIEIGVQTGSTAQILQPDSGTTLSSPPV
T2 sequence (P09619 33-1106): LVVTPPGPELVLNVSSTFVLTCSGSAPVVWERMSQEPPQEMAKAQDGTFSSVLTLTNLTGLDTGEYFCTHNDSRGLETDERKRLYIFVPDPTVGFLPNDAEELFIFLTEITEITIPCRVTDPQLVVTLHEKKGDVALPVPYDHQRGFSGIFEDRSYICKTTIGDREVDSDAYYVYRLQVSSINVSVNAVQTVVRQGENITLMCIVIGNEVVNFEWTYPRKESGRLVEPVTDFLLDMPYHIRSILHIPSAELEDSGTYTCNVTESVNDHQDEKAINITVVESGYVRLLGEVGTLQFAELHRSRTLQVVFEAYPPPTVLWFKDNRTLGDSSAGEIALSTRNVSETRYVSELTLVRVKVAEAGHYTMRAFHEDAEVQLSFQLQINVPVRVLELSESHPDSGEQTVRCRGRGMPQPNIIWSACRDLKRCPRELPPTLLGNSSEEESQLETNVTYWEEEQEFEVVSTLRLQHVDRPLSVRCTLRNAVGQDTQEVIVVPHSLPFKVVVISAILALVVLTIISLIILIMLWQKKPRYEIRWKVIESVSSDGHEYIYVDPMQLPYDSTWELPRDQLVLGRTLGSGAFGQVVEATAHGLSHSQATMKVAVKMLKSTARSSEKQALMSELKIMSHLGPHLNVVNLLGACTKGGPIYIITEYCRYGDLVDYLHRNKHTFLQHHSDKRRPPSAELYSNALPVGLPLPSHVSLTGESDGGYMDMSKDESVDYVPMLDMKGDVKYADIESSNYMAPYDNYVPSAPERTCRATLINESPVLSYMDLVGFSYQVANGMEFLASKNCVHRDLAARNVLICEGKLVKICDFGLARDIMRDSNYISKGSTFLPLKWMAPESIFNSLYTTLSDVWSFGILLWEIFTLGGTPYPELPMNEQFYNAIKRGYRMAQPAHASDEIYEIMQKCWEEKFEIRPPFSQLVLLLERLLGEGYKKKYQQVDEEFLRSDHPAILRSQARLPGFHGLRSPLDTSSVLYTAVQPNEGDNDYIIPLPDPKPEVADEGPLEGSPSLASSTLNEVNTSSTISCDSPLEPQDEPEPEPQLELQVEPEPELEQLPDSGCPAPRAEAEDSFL
T1 sequence (P15056 416-766): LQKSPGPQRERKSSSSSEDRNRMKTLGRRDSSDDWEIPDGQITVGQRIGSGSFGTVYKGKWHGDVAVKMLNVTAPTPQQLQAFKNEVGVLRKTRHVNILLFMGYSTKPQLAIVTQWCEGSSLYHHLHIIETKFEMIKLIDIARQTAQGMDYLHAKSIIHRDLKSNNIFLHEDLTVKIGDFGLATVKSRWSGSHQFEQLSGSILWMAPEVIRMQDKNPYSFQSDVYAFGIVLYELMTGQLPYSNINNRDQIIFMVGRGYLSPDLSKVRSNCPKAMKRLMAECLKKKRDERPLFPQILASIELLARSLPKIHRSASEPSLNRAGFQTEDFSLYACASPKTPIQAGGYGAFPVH

SMILES	IC50 [1] [µM]	IC50 (PDGFRβ kinase) [µM]	IC50 (VEGFR2 kinase) [µM]
O=C(Nc1ccc(Oc2cc(-n3cncn3)ncn2)cc1)Nc1ccc(Cl)c(C(F)(F)F)c1 [Example 1, 1-(4-Chloro-3-trifluoromethyl-phenyl)-3-[4-(6-[1,2,4]triazol-1-yl-pyrimidin-4-yloxy)-phenyl]-urea]	≤ 10	≤ 10	≤ 10
O=C(Nc1ccc(Oc2ccnc(-n3cncn3)n2)cc1)Nc1ccc(Cl)c(C(F)(F)F)c1 [Example 2, 1-(4-Chloro-3-trifluoromethyl-phenyl)-3-[4-(2-[1,2,4]triazol-1-yl-pyrimidin-4-yloxy)-phenyl]-urea]	> 10	> 10	> 10
O=C(Nc1ccc(Oc2cc(-c3ncon3)ncn2)cc1)Nc1ccc(Cl)c(C(F)(F)F)c1 [Example 3, 1-(4-Chloro-3-trifluoromethyl-phenyl)-3-[4-(6-[1,2,4]oxadiazol-3-yl-pyrimidin-4-yloxy)-phenyl]-urea]	> 10	≤ 10	≤ 10
COc1cc(CNC(=O)Nc2cccc(Oc3ccnc(-c4nnco4)c3)c2)cc(OC)c1OC [Example 5, 1-[3-(2-[1,3,4]Oxadiazol-2-yl-pyridin-4-yloxy)-phenyl]-3-(3,4,5-trimethoxybenzyl)-urea]	≤ 10	> 10	≤ 10
Cc1cc(Oc2ccc(NC(=O)Nc3ccc(Cl)c(C(F)(F)F)c3)cc2)nc(-n2ccnc2)n1 [Example 6, 1-(4-(2-(1H-imidazol-1-yl)-6-methylpyrimidin-4-yloxy)phenyl)-3-(4-chloro-3-(trifluoromethyl)phenyl)urea]	≤ 10	> 10	> 10
O=C(Nc1ccc(Oc2ccnc(-c3ncon3)n2)cc1)Nc1ccc(Cl)c(C(F)(F)F)c1 [Example 7, 1-(4-(2-(1,2,4-Oxadiazol-3-yl)pyrimidin-4-yloxy)phenyl)-3-(4-chloro-3-(trifluoromethyl)phenyl)urea]	> 10		
O=C(Nc1ccc(Oc2cc(-c3nnco3)ncn2)cc1)Nc1ccc(Cl)c(C(F)(F)F)c1 [Example 8, 1-(4-(6-(1,3,4-Oxadiazol-2-yl)pyrimidin-4-yloxy)phenyl)-3-(4-chloro-3-(trifluoromethyl)phenyl)urea]	≤ 10	≤ 10	≤ 10
O=C(Nc1cccc(Oc2cc(-c3nnco3)ncn2)c1)Nc1ccc(Cl)c(C(F)(F)F)c1 [Example 9, 1-(3-(6-(1,3,4-Oxadiazol-2-yl)pyrimidin-4-yloxy)phenyl)-3-(4-chloro-3-(trifluoromethyl)phenyl)urea]	≤ 10	≤ 10	≤ 10
O=C(Nc1cccc(Oc2cc(-c3ncon3)ncn2)c1)Nc1ccc(Cl)c(C(F)(F)F)c1 [Example 10, 1-(3-(6-(1,2,4-Oxadiazol-3-yl)pyrimidin-4-yloxy)phenyl)-3-(4-chloro-3-(trifluoromethyl)phenyl)urea]	≤ 10	≤ 10	≤ 10
Cc1nnc(-c2cc(Oc3cccc(NC(=O)Nc4ccc(Cl)c(C(F)(F)F)c4)c3)ncn2)o1 [Example 11, 1-(4-Chloro-3-(trifluoromethyl)phenyl)-3-(3-(6-(5-methyl-1,3,4-oxadiazol-2-yl)pyrimidin-4-yloxy)phenyl)urea]	≤ 10	≤ 10	≤ 10
O=C(Nc1cccc(Oc2ccnc(-c3nnco3)n2)c1)Nc1ccc(Cl)c(C(F)(F)F)c1 [Example 12, 1-(3-(2-(1,3,4-oxadiazol-2-yl)pyrimidin-4-yloxy)phenyl)-3-(4-chloro-3-(trifluoromethyl)phenyl)urea]	≤ 10	≤ 10	≤ 10

More lines, now with the values ahead:

IC50 [1] [µM]	IC50 (PDGFRβ kinase) [µM]	IC50 (VEGFR2 kinase) [µM]	SMILES
≤ 10	≤ 10	≤ 10	O=C(Nc1ccc(Oc2cc(-c3ncco3)ncn2)cc1)Nc1ccc(Cl)c(C(F)(F)F)c1 [Example 13, 1-(4-Chloro-3-(trifluoromethyl)phenyl)-3-(4-(6-(oxazol-2-yl)pyrimidin-4-yloxy)phenyl)urea]
≤ 10	≤ 10	≤ 10	O=C(Nc1cccc(Oc2cc(-c3ncco3)ncn2)c1)Nc1ccc(Cl)c(C(F)(F)F)c1 [Example 14, 1-(4-chloro-3-(trifluoromethyl)phenyl)-3-(3-(6-(oxazol-2-yl)pyrimidin-4-yloxy)phenyl)urea]
≤ 10	≤ 10	≤ 10	O=C(Nc1cccc(Oc2cc(-c3ncno3)ncn2)c1)Nc1ccc(Cl)c(C(F)(F)F)c1 [Example 15, 1-(3-(6-(1,2,4-oxadiazol-5-yl)pyrimidin-4-yloxy)phenyl)-3-(4-chloro-3-(trifluoromethyl)phenyl)urea]
≤ 10	≤ 10	≤ 10	Cn1ncnc1-c1cc(Oc2cccc(NC(=O)Nc3ccc(Cl)c(C(F)(F)F)c3)c2)ncn1 [Example 16, 1-(4-Chloro-3-(trifluoromethyl)phenyl)-3-(3-(6-(1-methyl-1H-1,2,4-triazol-5-yl)pyrimidin-4-yloxy)phenyl)urea]
≤ 10	≤ 10	≤ 10	O=C(Nc1cccc(Oc2cc(-c3ncn[nH]3)ncn2)c1)Nc1ccc(Cl)c(C(F)(F)F)c1 [Example 17, 1-(3-(6-(1H-1,2,4-Triazol-5-yl)pyrimidin-4-yloxy)phenyl)-3-(4-chloro-3-(trifluoromethyl)phenyl)urea]
> 10	≤ 10	≤ 10	O=C(Nc1ccc(Oc2cc(-c3ncno3)ncn2)cc1)Nc1ccc(Cl)c(C(F)(F)F)c1 [Example 18, 1-(4-(6-(1,2,4-Oxadiazol-5-yl)pyrimidin-4-yloxy)phenyl)-3-(4-chloro-3-(trifluoromethyl)phenyl)urea]
> 10	≤ 10	≤ 10	O=C(Nc1cccc(Oc2cc(-c3nnn[nH]3)ncn2)c1)Nc1ccc(Cl)c(C(F)(F)F)c1 [Example 19, 1-(3-(6-(1H-Tetrazol-5-yl)pyrimidin-4-yloxy)phenyl)-3-(4-chloro-3-(trifluoromethyl)phenyl)urea]
≤ 10	≤ 10	≤ 10	Cn1nnc(-c2cc(Oc3cccc(NC(=O)Nc4ccc(Cl)c(C(F)(F)F)c4)c3)ncn2)n1 [Example 20, 1-(4-Chloro-3-(trifluoromethyl)phenyl)-3-(3-(6-(2-methyl-2H-tetrazol-5-yl)pyrimidin-4-yloxy)phenyl)urea]
≤ 10	≤ 10	≤ 10	Cn1nnnc1-c1cc(Oc2cccc(NC(=O)Nc3ccc(Cl)c(C(F)(F)F)c3)c2)ncn1 [Example 21, 1-(4-chloro-3-(trifluoromethyl)phenyl)-3-(3-(6-(1-methyl-1H-tetrazol-5-yl)pyrimidin-4-yloxy)phenyl)urea]
≤ 10	≤ 10	≤ 10	O=C(Nc1ccc(Oc2cc(-c3ncn[nH]3)ncn2)cc1)Nc1ccc(Cl)c(C(F)(F)F)c1 [Example 22, 1-(4-(6-(1H-1,2,4-Triazol-5-yl)pyrimidin-4-yloxy)phenyl)-3-(4-chloro-3-(trifluoromethyl)phenyl)urea]
≤ 10	≤ 10	≤ 10	Cn1ncnc1-c1cc(Oc2ccc(NC(=O)Nc3ccc(Cl)c(C(F)(F)F)c3)cc2)ncn1 [Example 23, 1-(4-Chloro-3-(trifluoromethyl)phenyl)-3-(4-(6-(1-methyl-1H-1,2,4-triazol-5-yl)pyrimidin-4-yloxy)phenyl)urea]
≤ 10		≤ 10	NC(=O)Cn1cc(-c2cc(Oc3cccc(NC(=O)Nc4ccc(Cl)c(C(F)(F)F)c4)c3)ncn2)cn1 [Example 55, 2-(4-(6-(3-(3-(4-Chloro-3-(trifluoromethyl)phenyl)ureido)phenoxy)pyrimidin-4-yl)-1H-pyrazol-1-yl)acetamide]
